In US7323570B2, “Farnesyltransferase inhibitors” (Abbott Laboratories, priority 2000, dated 2008) one finds inhibition data, which are given here for three molecules.

This assay deals with T1, farnesyltransferase (Rattus norvegicus, UniProt Q02293+Q04631).
T1 construct: The enzyme can be purified according to Cell, 62: 81-88 (1990), utilizing steps one, two, and three; from tissue; host or cells: rat brain
Briefly: Inhibition of farnesyltransferase (3H-farnesyldiphosphate / H-Ras filter assay). The format is biochemical. As to conditions: 37° C., 30 minutes; for inhibition at 0.1 µM: test compound 10^−7M. The text has this:
The ability of the compounds of the present invention to inhibit farnesyltransferase can be measured according to the method described in J. Biol. Chem., 266: 14603 (1991) or J. Biol. Chem., 270:660-664 (1995). Procedures for determination of the inhibition of farnesylation of the oncogene protein Ras are described in J. Biol. Chem., 266:15575-15578 (1991) and U.S. Pat. No. 5,245,061. Inhibition of rat brain farnesyltransferase can also be measured in vitro using an Amersham Life Science commercial scintillation proximity assay kit and substituting a biotin-K Ras B fragment (0.1 μM final concentration) for the biotin-lamin substrate provided by Amersham. The enzyme can be purified according to Cell, 62: 81-88 (1990), utilizing steps one, two, and three. […] The percent inhibition of the farnesylation caused by the compounds of the present invention (at 10^−6 M) compared to an uninhibited control sample can be evaluated in the same Amersham test system.
The mixture was brought to 37° C., treated with enzyme, incubated for 30 minutes, treated with 1 M HCl/ethanol (1 mL) to stop the reaction, stirred for 15 minutes at room temperature, diluted with ethanol (2 mL), filtered through a 2.5 cm glass microfiber filter (Whatman) with ethanol rinses (4×2 mL). The glass filter was transferred to a scintillation vial and treated with scintillation fluid (5 mL). The radioisotope retained on the glass fiber filter was counted and reflected the activity of the enzyme.

A value given as a limit tells only on which side of the number the result lay.

T1 sequence (Q02293 whole entry, one chain of several): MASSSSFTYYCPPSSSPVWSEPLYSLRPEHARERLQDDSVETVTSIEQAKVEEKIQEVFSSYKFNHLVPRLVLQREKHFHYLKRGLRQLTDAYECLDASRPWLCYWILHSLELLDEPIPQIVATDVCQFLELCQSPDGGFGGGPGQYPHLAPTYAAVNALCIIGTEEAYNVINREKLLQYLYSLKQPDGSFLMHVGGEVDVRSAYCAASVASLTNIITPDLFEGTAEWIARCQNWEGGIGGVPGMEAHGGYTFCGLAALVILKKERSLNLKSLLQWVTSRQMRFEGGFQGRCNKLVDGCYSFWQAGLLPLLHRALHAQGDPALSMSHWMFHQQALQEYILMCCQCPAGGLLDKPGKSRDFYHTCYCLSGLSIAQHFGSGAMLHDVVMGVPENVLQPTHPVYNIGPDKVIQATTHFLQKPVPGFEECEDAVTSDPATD

Broadly, the inhibition is the percentage by which the read-out fell short of the control. Read a high inhibition as a response far below the control. `Cn1cncc1C(OCc1ccc(Cl)cc1-c1ccccc1)c1ccc(C#N)cc1` (stereo not drawn) [Example 2, 4-(((5-chloro(1,1′-biphenyl)-2-yl)methoxy)(1-methyl-1H-imidazol-5-yl)methyl)benzonitrile]: the inhibition at 0.1 µM is greater than 66%. The same measure, in the same setting: next, `Cn1cncc1C(OCc1c(-c2cccc(Cl)c2)cc(C#N)c(=O)n1C)c1ccc(Cl)cc1` (stereo not drawn) [Example 43, 5-(3-chlorophenyl)-6-(((4-chlorophenyl)(1-methyl-1H-imidazol-5-yl)methoxy)methyl)-1-methyl-2-oxo-1,2-dihydro-3-pyridinecarbonitrile]: greater than 81%.

Consider `COc1cccc(-c2cc(C#N)ccc2OCC(F)(c2ccc(C#N)cc2)c2cncn2C)c1` (stereo not drawn) [Example 58, 6-(2-(4-cyanophenyl)-2-fluoro-2-(1-methyl-1H-imidazol-5-yl)ethoxy)-3′-methoxy-1,1′-biphenyl-3-carbonitrile], for which the inhibition at 0.01 µM (test compound 10^−8M) amounted to 96%.
